How the values were obtained:
tau fibrils = tau fibrils (Homo sapiens, UniProt P10636); test: Table A function: disaggregators of amyloid fibrils (tau)
α-synuclein fibrils = α-synuclein fibrils (Homo sapiens, UniProt P37840); test: Table A function: disaggregators of amyloid fibrils (alpha-synuclein)
biosensor cells = test: Toxicity to biosensor cells under seeding assay conditions; type: cell-based; details: under the assayed conditions

tau fibrils, sequence (P10636 1-441 isoform P10636-8): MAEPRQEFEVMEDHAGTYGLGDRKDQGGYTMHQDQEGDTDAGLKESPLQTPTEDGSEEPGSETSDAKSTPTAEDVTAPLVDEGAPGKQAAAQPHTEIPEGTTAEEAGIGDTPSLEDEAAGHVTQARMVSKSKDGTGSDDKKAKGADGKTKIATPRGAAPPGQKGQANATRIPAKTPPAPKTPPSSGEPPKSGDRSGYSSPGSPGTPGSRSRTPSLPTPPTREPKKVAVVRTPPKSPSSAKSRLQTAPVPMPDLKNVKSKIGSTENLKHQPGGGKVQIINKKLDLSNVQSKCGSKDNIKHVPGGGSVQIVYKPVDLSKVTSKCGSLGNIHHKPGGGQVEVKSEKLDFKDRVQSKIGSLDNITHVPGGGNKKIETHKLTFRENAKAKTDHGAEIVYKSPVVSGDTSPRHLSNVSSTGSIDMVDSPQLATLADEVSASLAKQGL

Row | Function (tau fibrils) | Structure (SMILES) | further results
1 | Dissociate tau fibrils | O=C1C(Cl)=C(Nc2ccc(Cl)cc2)C(=O)c2ccccc21 [MOL18, 2-chloro-3-[(4-chlorophenyl)amino]naphthalene-1,4-dione] | 
2 |  | Cc1cc(NC(=O)Cc2ccccc2Cl)ccc1Br [MOL06, N-(4-bromo-3-methylphenyl)-2-(2-chlorophenyl)acetamide] | Function (α-synuclein fibrils): Dissociate α- synuclein fibrils
3 | Dissociate tau fibrils | COc1cccc2cc(C(=O)Nc3cccc(-c4cn5ccccc5n4)c3)c(=O)oc12 [compound 1541, N-(3-(imidazo[1,2-a]pyridin-2-yl)phenyl)-8-methoxy-2-oxo-2H-chromene-3-carboxamide] | 
4 |  | Oc1cccc(-c2c3nc(c(-c4cccc(O)c4)c4ccc([nH]4)c(-c4cccc(O)c4)c4nc(c(-c5cccc(O)c5)c5ccc2[nH]5)CC4)C=C3)c1 [FDA-A4, Temoporfin] | toxicity to biosensor cells (biosensor cells): toxic
